Laboratory results: PMC8371461 (Frontiers in Pharmacology, 2021)

Legend:
Experiment in all cases: kinome scan
NDR2 = biological target: T1, NDR2 (Homo sapiens, UniProt Q9Y2H1); type: binding; conditions: 10 µM
T1 construct: purchased DiscoverX (KINOMEscan)

EGFR(L861Q) = biological target: T2, EGFR(L861Q) (Homo sapiens, UniProt P00533, L861Q); type: binding; conditions: 10 µM
T2 construct: purchased DiscoverX (KINOMEscan)

MAP3K4 = biological target: T3, MAP3K4 (Homo sapiens, UniProt Q9Y6R4); type: binding; conditions: 10 µM
T3 construct: purchased DiscoverX (KINOMEscan)

DCAMKL2 = biological target: T4, DCAMKL2 (Homo sapiens, UniProt Q8N568); type: binding; conditions: 10 µM
T4 construct: purchased DiscoverX (KINOMEscan)

[1] = biological target: T5, ABL1(E255K)-phosphorylated (Homo sapiens, UniProt P00519, E255K); type: binding; conditions: 10 µM
T5 construct: purchased DiscoverX (KINOMEscan)

STK35 = biological target: T6, STK35 (Homo sapiens, UniProt Q8TDR2); type: binding; conditions: 10 µM
T6 construct: purchased DiscoverX (KINOMEscan)

CAMK2D = biological target: T7, CAMK2D (Homo sapiens, UniProt Q13557); type: binding; conditions: 10 µM
T7 construct: purchased DiscoverX (KINOMEscan)

EPHA6 = biological target: T8, EPHA6 (Homo sapiens, UniProt Q9UF33); type: binding; conditions: 10 µM
T8 construct: purchased DiscoverX (KINOMEscan)

ABL1-nonphosphorylated = biological target: T9, ABL1-nonphosphorylated (Homo sapiens, UniProt P00519); type: binding; conditions: 10 µM
T9 construct: purchased DiscoverX (KINOMEscan)

SNRK = biological target: T10, SNRK (Homo sapiens, UniProt Q9NRH2); type: binding; conditions: 10 µM
T10 construct: purchased DiscoverX (KINOMEscan)
T10 sequence (Q9NRH2 whole entry): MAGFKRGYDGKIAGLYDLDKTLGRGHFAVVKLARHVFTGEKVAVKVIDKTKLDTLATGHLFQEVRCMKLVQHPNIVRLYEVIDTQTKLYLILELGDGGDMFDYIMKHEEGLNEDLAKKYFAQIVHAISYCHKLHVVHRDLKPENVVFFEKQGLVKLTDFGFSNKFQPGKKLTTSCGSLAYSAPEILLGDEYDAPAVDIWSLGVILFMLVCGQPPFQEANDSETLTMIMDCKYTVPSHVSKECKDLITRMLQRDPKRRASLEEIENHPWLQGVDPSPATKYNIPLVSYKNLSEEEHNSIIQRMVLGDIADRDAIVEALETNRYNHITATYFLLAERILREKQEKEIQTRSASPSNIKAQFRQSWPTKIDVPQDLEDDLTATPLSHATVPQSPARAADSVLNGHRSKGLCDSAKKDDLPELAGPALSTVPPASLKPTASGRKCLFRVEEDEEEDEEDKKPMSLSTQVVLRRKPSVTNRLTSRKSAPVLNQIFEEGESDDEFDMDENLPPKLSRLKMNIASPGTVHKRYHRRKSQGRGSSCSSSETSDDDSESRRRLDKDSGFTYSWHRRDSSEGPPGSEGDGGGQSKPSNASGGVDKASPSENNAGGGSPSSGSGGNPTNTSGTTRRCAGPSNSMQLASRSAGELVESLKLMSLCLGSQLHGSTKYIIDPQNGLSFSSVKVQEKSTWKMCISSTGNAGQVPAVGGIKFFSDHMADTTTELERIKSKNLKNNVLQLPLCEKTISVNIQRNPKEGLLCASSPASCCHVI

MINK = biological target: T11, MINK (Homo sapiens, UniProt Q8N4C8); type: binding; conditions: 10 µM
T11 construct: purchased DiscoverX (KINOMEscan)

ULK3 = biological target: T12, ULK3 (Homo sapiens, UniProt Q6PHR2); type: binding; conditions: 10 µM
T12 construct: purchased DiscoverX (KINOMEscan)

FLT3 = biological target: T13, FLT3 (Homo sapiens, UniProt P36888); type: binding
T13 construct: purchased DiscoverX (KINOMEscan)
T13 sequence (P36888 27-993): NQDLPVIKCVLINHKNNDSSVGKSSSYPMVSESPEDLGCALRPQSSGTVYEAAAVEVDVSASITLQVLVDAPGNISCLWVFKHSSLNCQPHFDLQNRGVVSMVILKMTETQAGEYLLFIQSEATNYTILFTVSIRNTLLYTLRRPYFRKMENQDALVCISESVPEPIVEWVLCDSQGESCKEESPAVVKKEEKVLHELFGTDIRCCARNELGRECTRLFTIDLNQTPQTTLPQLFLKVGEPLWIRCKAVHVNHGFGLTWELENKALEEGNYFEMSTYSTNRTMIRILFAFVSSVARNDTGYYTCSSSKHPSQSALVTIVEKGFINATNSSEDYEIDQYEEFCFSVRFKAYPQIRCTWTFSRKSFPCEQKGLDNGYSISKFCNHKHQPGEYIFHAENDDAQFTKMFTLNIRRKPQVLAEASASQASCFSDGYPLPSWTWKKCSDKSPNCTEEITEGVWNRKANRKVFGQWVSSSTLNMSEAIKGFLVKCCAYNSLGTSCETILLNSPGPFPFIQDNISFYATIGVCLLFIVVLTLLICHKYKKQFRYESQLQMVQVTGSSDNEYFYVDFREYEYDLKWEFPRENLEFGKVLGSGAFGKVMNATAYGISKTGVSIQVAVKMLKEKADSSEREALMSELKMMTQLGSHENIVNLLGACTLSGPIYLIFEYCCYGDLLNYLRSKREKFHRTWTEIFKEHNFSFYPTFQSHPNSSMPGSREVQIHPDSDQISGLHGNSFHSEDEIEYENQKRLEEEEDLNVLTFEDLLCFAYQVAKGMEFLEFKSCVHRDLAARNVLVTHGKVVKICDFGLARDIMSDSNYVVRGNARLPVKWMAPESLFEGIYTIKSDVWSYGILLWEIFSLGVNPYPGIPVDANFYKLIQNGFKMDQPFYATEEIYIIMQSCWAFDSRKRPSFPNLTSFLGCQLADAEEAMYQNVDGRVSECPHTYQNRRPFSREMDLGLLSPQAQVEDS

BLK = biological target: T14, BLK (Homo sapiens, UniProt P51451); type: binding; conditions: 10 µM
T14 construct: purchased DiscoverX (KINOMEscan)

IRAK1 = biological target: T15, IRAK1 (Homo sapiens, UniProt P51617); type: binding; conditions: 10 µM
T15 construct: purchased DiscoverX (KINOMEscan)

LZK = biological target: T16, LZK (Homo sapiens, UniProt O43283); type: binding; conditions: 10 µM
T16 construct: purchased DiscoverX (KINOMEscan)

TTK = biological target: T17, TTK (Homo sapiens, UniProt P33981); type: binding; conditions: 10 µM
T17 construct: purchased DiscoverX (KINOMEscan)

IRAK3 = biological target: T18, IRAK3 (Homo sapiens, UniProt Q9Y616); type: binding; conditions: 10 µM
T18 construct: purchased DiscoverX (KINOMEscan)

[2] = biological target: T19, ABL1(Y253F)-phosphorylated (Homo sapiens, UniProt P00519, Y253F); type: binding; conditions: 10 µM
T19 construct: purchased DiscoverX (KINOMEscan)

CIT = biological target: T20, CIT (Homo sapiens, UniProt O14578); type: binding; conditions: 10 µM
T20 construct: purchased DiscoverX (KINOMEscan)
T20 sequence (O14578 whole entry): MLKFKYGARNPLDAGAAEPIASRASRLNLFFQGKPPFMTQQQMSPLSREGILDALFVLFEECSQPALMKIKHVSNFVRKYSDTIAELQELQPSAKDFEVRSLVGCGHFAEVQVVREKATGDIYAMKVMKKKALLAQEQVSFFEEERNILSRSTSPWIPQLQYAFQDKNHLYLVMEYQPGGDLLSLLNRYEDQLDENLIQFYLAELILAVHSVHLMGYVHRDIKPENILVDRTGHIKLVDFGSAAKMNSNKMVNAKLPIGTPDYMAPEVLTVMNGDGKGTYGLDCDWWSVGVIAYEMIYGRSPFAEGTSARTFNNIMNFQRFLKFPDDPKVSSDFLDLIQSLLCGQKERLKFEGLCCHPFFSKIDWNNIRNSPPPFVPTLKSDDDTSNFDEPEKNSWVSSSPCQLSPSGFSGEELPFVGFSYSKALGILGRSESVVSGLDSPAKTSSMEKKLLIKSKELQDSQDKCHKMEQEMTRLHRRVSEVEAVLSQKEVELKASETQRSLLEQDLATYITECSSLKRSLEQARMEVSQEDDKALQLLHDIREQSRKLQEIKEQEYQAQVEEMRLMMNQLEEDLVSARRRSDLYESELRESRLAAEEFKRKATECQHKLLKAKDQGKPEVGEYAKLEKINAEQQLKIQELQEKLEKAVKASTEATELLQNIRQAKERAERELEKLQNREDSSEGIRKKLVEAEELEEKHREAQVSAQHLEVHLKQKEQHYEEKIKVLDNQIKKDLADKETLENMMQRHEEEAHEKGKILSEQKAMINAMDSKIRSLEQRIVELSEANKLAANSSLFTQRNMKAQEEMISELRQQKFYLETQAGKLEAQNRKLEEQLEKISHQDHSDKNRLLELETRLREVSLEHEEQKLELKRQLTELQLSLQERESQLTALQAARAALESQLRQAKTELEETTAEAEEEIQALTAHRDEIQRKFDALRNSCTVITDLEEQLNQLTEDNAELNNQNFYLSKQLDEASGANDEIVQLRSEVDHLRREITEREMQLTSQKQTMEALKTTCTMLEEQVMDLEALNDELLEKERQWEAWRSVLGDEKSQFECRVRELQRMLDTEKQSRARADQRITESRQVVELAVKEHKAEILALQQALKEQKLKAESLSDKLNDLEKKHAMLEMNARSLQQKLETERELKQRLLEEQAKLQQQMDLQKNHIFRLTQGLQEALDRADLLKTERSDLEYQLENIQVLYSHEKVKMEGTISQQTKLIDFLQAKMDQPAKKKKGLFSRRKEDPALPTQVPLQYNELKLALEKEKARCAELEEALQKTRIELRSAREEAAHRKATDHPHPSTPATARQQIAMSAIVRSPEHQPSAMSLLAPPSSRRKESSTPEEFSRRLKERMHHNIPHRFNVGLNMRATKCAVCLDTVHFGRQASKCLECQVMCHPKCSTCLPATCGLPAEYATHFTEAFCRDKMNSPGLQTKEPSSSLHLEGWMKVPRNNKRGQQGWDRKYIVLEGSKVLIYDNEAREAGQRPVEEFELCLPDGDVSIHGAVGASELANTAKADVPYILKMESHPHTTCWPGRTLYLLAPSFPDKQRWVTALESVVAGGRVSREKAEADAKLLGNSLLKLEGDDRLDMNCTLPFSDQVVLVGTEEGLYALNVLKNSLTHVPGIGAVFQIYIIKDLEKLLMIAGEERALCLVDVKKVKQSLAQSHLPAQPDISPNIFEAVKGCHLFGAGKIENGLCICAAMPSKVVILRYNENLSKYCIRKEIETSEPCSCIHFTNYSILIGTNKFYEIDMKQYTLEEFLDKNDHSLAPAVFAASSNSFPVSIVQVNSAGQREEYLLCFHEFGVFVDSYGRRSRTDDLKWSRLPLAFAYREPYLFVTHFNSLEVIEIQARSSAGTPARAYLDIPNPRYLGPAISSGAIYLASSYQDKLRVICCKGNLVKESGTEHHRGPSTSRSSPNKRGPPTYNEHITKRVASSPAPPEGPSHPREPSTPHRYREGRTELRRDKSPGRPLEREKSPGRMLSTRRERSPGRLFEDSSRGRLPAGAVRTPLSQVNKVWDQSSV

CLK3 = biological target: T21, CLK3 (Homo sapiens, UniProt P49761); type: binding; conditions: 10 µM
T21 construct: purchased DiscoverX (KINOMEscan)

TBK1 = biological target: T22, TBK1 (Homo sapiens, UniProt Q9UHD2); type: binding; conditions: 10 µM
T22 construct: purchased DiscoverX (KINOMEscan)

MKK7 = biological target: T23, MKK7 (Homo sapiens, UniProt O14733); type: binding; conditions: 10 µM
T23 construct: purchased DiscoverX (KINOMEscan)

CDKL5 = biological target: T24, CDKL5 (Homo sapiens, UniProt O76039); type: binding; conditions: 10 µM
T24 construct: purchased DiscoverX (KINOMEscan)

NEK5 = biological target: T25, NEK5 (Homo sapiens, UniProt Q6P3R8); type: binding; conditions: 10 µM
T25 construct: purchased DiscoverX (KINOMEscan)

TAOK1 = biological target: T26, TAOK1 (Homo sapiens, UniProt Q7L7X3); type: binding; conditions: 10 µM
T26 construct: purchased DiscoverX (KINOMEscan)

PIK3CA(H1047L) = biological target: T27, PIK3CA(H1047L) (Homo sapiens, UniProt P42336, H1047L); type: binding; conditions: 10 µM
T27 construct: purchased DiscoverX (KINOMEscan)

SGK3 = biological target: T28, SGK3 (Homo sapiens, UniProt Q96BR1); type: binding; conditions: 10 µM
T28 construct: purchased DiscoverX (KINOMEscan)

TXK = biological target: T29, TXK (Homo sapiens, UniProt P42681); type: binding; conditions: 10 µM
T29 construct: purchased DiscoverX (KINOMEscan)

JNK2 = biological target: T30, JNK2 (Homo sapiens, UniProt P45984); type: binding; conditions: 10 µM
T30 construct: purchased DiscoverX (KINOMEscan)

TGFBR1 = biological target: T31, TGFBR1 (Homo sapiens, UniProt P36897); type: binding; conditions: 10 µM
T31 construct: purchased DiscoverX (KINOMEscan)

MAP3K2 = biological target: T32, MAP3K2 (Homo sapiens, UniProt Q9Y2U5); type: binding; conditions: 10 µM
T32 construct: purchased DiscoverX (KINOMEscan)

YANK3 = biological target: T33, YANK3 (Homo sapiens, UniProt Q86UX6); type: binding; conditions: 10 µM
T33 construct: purchased DiscoverX (KINOMEscan)

EGFR(L747-T751delSins) = type: binding, human; conditions: 10 µM
ACVR1 = biological target: T34, ACVR1 (Homo sapiens, UniProt Q04771); type: binding; conditions: 10 µM
T34 construct: purchased DiscoverX (KINOMEscan)

GSK3A = biological target: T35, GSK3A (Homo sapiens, UniProt P49840); type: binding; conditions: 10 µM
T35 construct: purchased DiscoverX (KINOMEscan)

[3] = biological target: T36, RSK3(Kin.Dom.1-N-terminal) (Homo sapiens, UniProt Q15349); type: binding; conditions: 10 µM
T36 construct: RSK3(Kin.Dom.1-N-terminal); purchased DiscoverX (KINOMEscan)

PDGFRA = biological target: T37, PDGFRA (Homo sapiens, UniProt P16234); type: binding; conditions: 10 µM
T37 construct: purchased DiscoverX (KINOMEscan)
T37 sequence (P16234 24-1089): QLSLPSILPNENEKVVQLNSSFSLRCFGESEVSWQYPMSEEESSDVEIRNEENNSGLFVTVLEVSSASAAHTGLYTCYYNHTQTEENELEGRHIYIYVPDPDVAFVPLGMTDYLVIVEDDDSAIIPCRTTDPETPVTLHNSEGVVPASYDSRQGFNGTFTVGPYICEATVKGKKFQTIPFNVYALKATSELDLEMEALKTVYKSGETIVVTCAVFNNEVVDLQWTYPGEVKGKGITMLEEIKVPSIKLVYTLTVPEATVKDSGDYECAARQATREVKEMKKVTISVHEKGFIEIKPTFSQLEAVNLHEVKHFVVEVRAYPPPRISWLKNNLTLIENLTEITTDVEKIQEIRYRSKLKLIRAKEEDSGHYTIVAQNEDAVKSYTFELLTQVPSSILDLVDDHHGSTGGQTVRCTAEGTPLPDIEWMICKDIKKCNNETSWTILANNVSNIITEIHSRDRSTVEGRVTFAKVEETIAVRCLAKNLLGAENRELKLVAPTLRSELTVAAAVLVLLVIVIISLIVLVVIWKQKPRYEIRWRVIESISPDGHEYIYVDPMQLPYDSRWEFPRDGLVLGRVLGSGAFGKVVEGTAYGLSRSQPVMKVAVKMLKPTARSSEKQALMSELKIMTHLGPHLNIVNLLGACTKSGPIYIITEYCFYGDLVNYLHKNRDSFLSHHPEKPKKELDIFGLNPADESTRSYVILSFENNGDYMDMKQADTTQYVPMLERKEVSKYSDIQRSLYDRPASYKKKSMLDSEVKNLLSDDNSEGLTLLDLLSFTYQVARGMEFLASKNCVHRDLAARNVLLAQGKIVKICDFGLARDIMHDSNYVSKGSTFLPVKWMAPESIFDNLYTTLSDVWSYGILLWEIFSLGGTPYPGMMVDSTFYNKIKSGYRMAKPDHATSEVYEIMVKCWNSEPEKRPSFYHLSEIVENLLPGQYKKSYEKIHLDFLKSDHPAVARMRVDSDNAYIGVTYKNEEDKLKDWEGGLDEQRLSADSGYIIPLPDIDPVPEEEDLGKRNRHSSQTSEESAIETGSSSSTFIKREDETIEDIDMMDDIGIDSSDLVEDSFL

CDK5 = biological target: T38, CDK5 (Homo sapiens, UniProt Q00535); type: binding; conditions: 10 µM
T38 construct: purchased DiscoverX (KINOMEscan)
T38 sequence (Q00535 whole entry): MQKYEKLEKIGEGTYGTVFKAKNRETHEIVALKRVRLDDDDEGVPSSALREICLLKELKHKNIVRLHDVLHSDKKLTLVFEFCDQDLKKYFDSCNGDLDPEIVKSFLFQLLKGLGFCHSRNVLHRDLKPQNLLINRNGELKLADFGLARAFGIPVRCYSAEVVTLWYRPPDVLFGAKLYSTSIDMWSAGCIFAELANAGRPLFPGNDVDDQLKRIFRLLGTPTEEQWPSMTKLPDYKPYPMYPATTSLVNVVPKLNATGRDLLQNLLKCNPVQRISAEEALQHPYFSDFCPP

PIP5K2B = biological target: T39, PIP5K2B (Homo sapiens, UniProt P78356); type: binding; conditions: 10 µM
T39 construct: purchased DiscoverX (KINOMEscan)

PIK3CA(I800L) = biological target: T40, PIK3CA(I800L) (Homo sapiens, UniProt P42336, I800L); type: binding; conditions: 10 µM
T40 construct: purchased DiscoverX (KINOMEscan)

MST2 = biological target: T41, MST2 (Homo sapiens, UniProt Q13188); type: binding; conditions: 10 µM
T41 construct: purchased DiscoverX (KINOMEscan)

NLK = biological target: T42, NLK (Homo sapiens, UniProt Q9UBE8); type: binding; conditions: 10 µM
T42 construct: purchased DiscoverX (KINOMEscan)

## Nc1ccc(N=Nc2ccccc2)c(N)n1 [phenazopyridine, 2,6-diamino-3-(phenylazo)pyridine]
NDR2
  kinase inhibition: 100
EGFR(L861Q)
  kinase inhibition: 95
MAP3K4
  kinase inhibition: 100
DCAMKL2
  kinase inhibition: 89
[1]
  kinase inhibition: 62
STK35
  kinase inhibition: 93
CAMK2D
  kinase inhibition: 88
EPHA6
  kinase inhibition: 91
ABL1-nonphosphorylated
  kinase inhibition: 86
SNRK
  kinase inhibition: 100
MINK
  kinase inhibition: 90
ULK3
  kinase inhibition: 100
FLT3; 10 µM
  remaining binding (% of control): 25
FLT3; read-out: % Of control
  remaining binding at 10 µM: 25%
BLK
  remaining binding (% of control): 100
IRAK1
  kinase inhibition: 100
LZK
  kinase inhibition: 100
TTK
  kinase inhibition: 88
IRAK3
  kinase inhibition: 71
[2]
  kinase inhibition: 90
CIT
  kinase inhibition: 72
CLK3
  kinase inhibition: 99
TBK1
  kinase inhibition: 100
MKK7
  kinase inhibition: 100
CDKL5
  kinase inhibition: 100
NEK5
  kinase inhibition: 100
TAOK1
  kinase inhibition: 93
PIK3CA(H1047L)
  kinase inhibition: 80
SGK3
  kinase inhibition: 100
TXK
  remaining binding (% of control): 100
JNK2
  kinase inhibition: 94
TGFBR1
  kinase inhibition: 100
MAP3K2
  kinase inhibition: 85
YANK3
  kinase inhibition: 100
EGFR(L747-T751delSins)
  kinase inhibition: 80
ACVR1
  kinase inhibition: 100
GSK3A
  kinase inhibition: 100
[3]
  kinase inhibition: 100
PDGFRA
  kinase inhibition: 38
CDK5
  kinase inhibition: 90
PIP5K2B
  kinase inhibition: 97
PIK3CA(I800L)
  kinase inhibition: 88
MST2
  kinase inhibition: 73
NLK
  kinase inhibition: 88
